Source: PubChem BioAssay AID330 (DTP/NCI, 2004)
Several values for one entry are separate records, joined by “and”; a condition that tells them apart may be missing. Equal values may be shown once. Toxic doses and inconclusive results are not listed. How the source made its calls: active means survival T/C of 150% or more; inactive means T/C below 125% in these data. Numbered stars: 1 amine (or outer) side, 2 acyl side, 3 side chain; on linkers, the order of the positions; unused ones are H or OH. Bridge positions count the residues as written; N and C are the ends. Square brackets hold non-standard residues; d marks the D form. Peptide text beside a SMILES is read from it. ξ: configuration not given here. X15 = O=C(/C(=C/c1c[nH]c2ccccc12)N[*:1])[*:2]; X16 = CC(c1c[nH]c2ccccc12)C(N[*:1])C(=O)[*:2]; βAsp = O=C(O)[CH](CC(=O)[*:2])N[*:1]; ξLeu(3ξ-OH) = CC(C)C(O)C(N)C(=O)O; X14 = O=C(C1C(O)CCN1[*:1])[*:2]; ξP = O=C(O)C1CCCN1

Tested on: P388 leukemia ip, CD2F1 mice, survival T/C
Assay: NCI In Vivo Anticancer Drug Screen. Data for tumor model P388 Leukemia (intraperitoneal) in CD2F1 (CDF1) mice
Details: endpoint: median survival time, higher = longer survival
How it was run: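 Mice carrying the transplanted tumor received test compound or vehicle. Survival was recorded in each group, and the value is the treated-group measurement divided by that of the vehicle-treated control group.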

[1] = dose: 100.0 mg/kg/injection, schedule: Q01DX001 (ip), vehicle: Klucel (hydroxypropylcellulose) (HPC)
[2] = dose: 200.0 mg/kg/injection, schedule: Q01DX001 (ip), vehicle: Klucel (hydroxypropylcellulose) (HPC)
[3] = dose: 60.0 mg/kg/injection, schedule: Q01DX005 (ip), vehicle: saline with Tween-80
[4] = dose: 120.0 mg/kg/injection, schedule: Q01DX005 (ip), vehicle: saline with Tween-80
[5] = dose: 240.0 mg/kg/injection, schedule: Q01DX005 (ip), vehicle: saline with Tween-80
[6] = dose: 50.0 mg/kg/injection, schedule: Q01DX005 (ip), vehicle: Klucel (hydroxypropylcellulose) (HPC)
[7] = dose: 100.0 mg/kg/injection, schedule: Q01DX005 (ip), vehicle: Klucel (hydroxypropylcellulose) (HPC)
[8] = dose: 200.0 mg/kg/injection, schedule: Q01DX005 (ip), vehicle: Klucel (hydroxypropylcellulose) (HPC)
[9] = dose: 50.0 mg/kg/injection, schedule: Q01DX005 (ip), vehicle: saline with Tween-80
[10] = dose: 100.0 mg/kg/injection, schedule: Q01DX005 (ip), vehicle: saline with Tween-80
[11] = dose: 200.0 mg/kg/injection, schedule: Q01DX005 (ip), vehicle: saline with Tween-80

Measured: T/C

N#Cc1ccccc1NCc1ccccc1
inactive: dose: 12.5 mg/kg/injection, schedule: Q01DX009 (ip), vehicle: distilled water + Tween-80 103 % of control | dose: 25.0 mg/kg/injection, schedule: Q01DX009 (ip), vehicle: distilled water + Tween-80 102 % of control | dose: 50.0 mg/kg/injection, schedule: Q01DX009 (ip), vehicle: distilled water + Tween-80 100 % of control and 97 % of control | dose: 100.0 mg/kg/injection, schedule: Q01DX009 (ip), vehicle: distilled water + Tween-80 100 % of control and 103 % of control and 92 % of control | dose: 200.0 mg/kg/injection, schedule: Q01DX009 (ip), vehicle: distilled water + Tween-80 94 % of control and 95 % of control (2×) | dose: 400.0 mg/kg/injection, schedule: Q01DX009 (ip), vehicle: distilled water + Tween-80 99 % of control and 93 % of control | dose: 600.0 mg/kg/injection, schedule: Q01DX009 (ip), vehicle: distilled water + Tween-80 99 % of control

O=C(O)C1(Cc2ccc(O)c(O)c2)NCCS1 (stereo not given)
inactive: [1] 104 % of control | [2] 100 % of control

Nc1ncnc2c1c(-c1ccccc1)cn2-c1ccc(I)cc1
inactive: [3] 103 % of control | [4] 100 % of control | [5] 96 % of control

C=CCOc1cc2c(cc1C(CC)c1ccc(OC)cc1)OCO2 (stereo not given)
inactive: [6] 101 % of control | [7] 103 % of control | [8] 104 % of control

[CH3][Sn]([CH3])([Br])[Br].c1ccc(-c2nnc(-c3ccccn3)nc2-c2ccccc2)cc1
inactive: dose: 30.0 mg/kg/injection, schedule: Q01DX005 (ip), vehicle: Klucel (hydroxypropylcellulose) (HPC) 107 % of control | dose: 60.0 mg/kg/injection, schedule: Q01DX005 (ip), vehicle: Klucel (hydroxypropylcellulose) (HPC) 113 % of control and 95 % of control | dose: 120.0 mg/kg/injection, schedule: Q01DX005 (ip), vehicle: Klucel (hydroxypropylcellulose) (HPC) 100 % of control and 106 % of control

CC1C2=C(C(=O)N1Cc1ccccc1)C(C1OC(COC(=O)c3ccccc3)C(OC(=O)c3ccccc3)C1OC(=O)c1ccccc1)C(=O)N(C)C2=O (stereo not given)
inactive: dose: 39.0 mg/kg/injection, schedule: Q01DX009 (ip), vehicle: Klucel (hydroxypropylcellulose) (HPC) 97 % of control | dose: 78.0 mg/kg/injection, schedule: Q01DX009 (ip), vehicle: Klucel (hydroxypropylcellulose) (HPC) 99 % of control | dose: 156.0 mg/kg/injection, schedule: Q01DX009 (ip), vehicle: Klucel (hydroxypropylcellulose) (HPC) 95 % of control

Cc1ccc(S(=O)(=O)N=Nc2c(O)[nH]c3c(Cl)cc(Cl)cc23)cc1
inactive: [9] 103 % of control | [10] 100 % of control | [11] 95 % of control

NCC(=O)N1CCCC1C(=O)NCC(=O)NCC(=O)O (stereo not given) (H-G[ξP]GG-OH)
inactive: dose: 50.0 mg/kg/injection, schedule: Q01DX005 (ip), vehicle: saline 101 % of control | dose: 100.0 mg/kg/injection, schedule: Q01DX005 (ip), vehicle: saline 107 % of control | dose: 100.0 mg/kg/injection, schedule: Q01DX005 (ip), vehicle: water 105 % of control | dose: 200.0 mg/kg/injection, schedule: Q01DX005 (ip), vehicle: saline 99 % of control | dose: 200.0 mg/kg/injection, schedule: Q01DX005 (ip), vehicle: water 107 % of control | dose: 400.0 mg/kg/injection, schedule: Q01DX005 (ip), vehicle: water 110 % of control

CCC1C[N+]2=C(c3cc(OC)c(OC)cc3CC2)c2c1cc1n2CCc2cc(OC)c(OC)cc2-1 (stereo not given)
inactive: dose: 0.75 mg/kg/injection, schedule: Q01DX005 (ip), vehicle: saline with Tween-80 101 % of control | dose: 1.5 mg/kg/injection, schedule: Q01DX005 (ip), vehicle: saline with Tween-80 109 % of control | dose: 3.0 mg/kg/injection, schedule: Q01DX005 (ip), vehicle: saline with Tween-80 117 % of control | dose: 3.12 mg/kg/injection, schedule: Q01DX005 (ip), vehicle: saline with Tween-80 111 % of control | dose: 6.25 mg/kg/injection, schedule: Q01DX005 (ip), vehicle: saline with Tween-80 109 % of control | dose: 12.5 mg/kg/injection, schedule: Q01DX005 (ip), vehicle: saline with Tween-80 114 % of control

O=C(O)CC1(C(=O)O)CCC(OCc2ccccc2)CC1 (stereo not given)
inactive: dose: 50.0 mg/kg/injection, schedule: Q01DX009 (ip), vehicle: saline 102 % of control | dose: 100.0 mg/kg/injection, schedule: Q01DX009 (ip), vehicle: saline 92 % of control

CC1NC(=O)C(C(C)O)NC(=O)C(NC(=O)C(CO)NC(=O)CC(N)C(=O)O)C(C)OC(=O)C2C(O)CCN2C(=O)C(C(O)C(C)C)NC(=O)C(C(C)c2c[nH]c3ccccc23)NC(=O)/C(=C/c2c[nH]c3ccccc23)NC(=O)C2C(O)CCN2C(=O)CNC1=O (stereo not given) (βAsp-STTAG[X14][X15][X16][ξLeu(3ξ-OH)][X14]; ester 2-C; configuration not given here)
inactive: dose: 100.0 mg/kg/injection, schedule: Q01DX009 (ip), vehicle: saline with Tween-80 105 % of control | dose: 200.0 mg/kg/injection, schedule: Q01DX009 (ip), vehicle: saline with Tween-80 89 % of control | dose: 400.0 mg/kg/injection, schedule: Q01DX009 (ip), vehicle: saline with Tween-80 91 % of control

COc1ccc(C2=C(Cl)C(=O)N(c3ccc(OC)cc3OC)C(=O)C2(Cl)Cl)cc1
inactive: dose: 100.0 mg/kg/injection, schedule: Q04DX002 (ip), vehicle: Klucel (hydroxypropylcellulose) (HPC) 98 % of control | dose: 200.0 mg/kg/injection, schedule: Q04DX002 (ip), vehicle: Klucel (hydroxypropylcellulose) (HPC) 101 % of control | dose: 400.0 mg/kg/injection, schedule: Q04DX002 (ip), vehicle: Klucel (hydroxypropylcellulose) (HPC) 117 % of control

O=c1[nH]cnc2ccc3[nH]ncc3c12
inactive: [9] 92 % of control | [10] 94 % of control | [11] 105 % of control

NCCN1C(=O)C2C3CCC(O3)C2C1=O (stereo not given)
inactive: [3] 96 % of control | [4] 98 % of control | [5] 107 % of control

COc1ccc(=NC(C)=O)c2c(O)c3c(=O)c4[nH]c5c(OC)ccc(=NC(C)=O)c5c(O)c4c(=O)c3[nH]c12
inactive: dose: 50.0 mg/kg/injection, schedule: Q01DX009 (ip), vehicle: Klucel (hydroxypropylcellulose) (HPC) 89 % of control | dose: 100.0 mg/kg/injection, schedule: Q01DX009 (ip), vehicle: Klucel (hydroxypropylcellulose) (HPC) 99 % of control | dose: 200.0 mg/kg/injection, schedule: Q01DX009 (ip), vehicle: Klucel (hydroxypropylcellulose) (HPC) 99 % of control

CCN(Cc1c(C)nc2ccc(N(C)C)cc2c1Cl)CN(CC)Cc1c(C)nc2ccc(N(C)C)cc2c1Cl
inactive: dose: 100.0 mg/kg/injection, schedule: Q01DX002 (ip), vehicle: saline with Tween-80 100 % of control | dose: 200.0 mg/kg/injection, schedule: Q01DX002 (ip), vehicle: saline with Tween-80 94 % of control | dose: 400.0 mg/kg/injection, schedule: Q01DX002 (ip), vehicle: saline with Tween-80 98 % of control

NNc1nnnn1-c1ccccc1
inactive: dose: 50.0 mg/kg/injection, schedule: Q01DX001 (ip), vehicle: Klucel (hydroxypropylcellulose) (HPC) 100 % of control | [1] 104 % of control | [2] 102 % of control

Cn1c(CC(=O)O)csc1=S
inactive: [9] 93 % of control | [10] 94 % of control | [11] 89 % of control

Cc1ccc2c(c1)[C@]1(C)O[C@@H](C=C[C@@H]1O)O2
inactive: [1] 104 % of control | [2] 102 % of control

CN(CCC(CCC(=O)O)(C(=O)O)c1ccccc1)Cc1ccccc1 (stereo not given)
inactive: [6] 92 % of control | [7] 100 % of control | [8] 98 % of control

CCOC(=O)C(c1ccccc1)C(NC(C)=O)(C(=O)OCC)C(=O)OCC (stereo not given)
inactive: [3] 102 % of control | [4] 102 % of control | [5] 105 % of control
